Source: US20220289708A1, “SUBSTITUTED N-PHENYL URACILS, SALTS THEREOF AND THEIR USE AS HERBICIDAL AGENTS” (Bayer Aktiengesellschaft, priority 2019, published 2022)

Columns and labels:
Assay type in all cases: in vivo
Viola tricolor = assay: Post-emergence herbicidal action
Protocol: (§1) a. Post-Emergence Herbicidal Action and Crop Plant Compatibility Seeds of monocotyledonous and dicotyledonous weeds and crop plants were placed in sandy loam in plastic or wood-fiber pots, covered with soil and cultivated in a greenhouse under controlled growth conditions. 2 to 3 weeks after sowing, the test plants were treated at the one-leaf stage. The compounds of the invention, formulated in the form of wettable powders (WP) or as emulsion concentrates (EC), were then sprayed onto the green parts of the plants as aqueous suspension or emulsion with addition of 0.5% additive at a water application rate of 600 l/ha (converted). After the test plants had been kept in the greenhouse under optimum growth conditions for about 3 weeks, the activity of the preparations was rated visually in comparison to untreated controls. For example, 100% activity=the plants have died, 0% activity=like control plants. Tables A1 to A15 below show the effects of selected compounds of the general formula (I) according to Tables I.1 to I.36 on various harmful plants and at an application rate corresponding to 20 g/ha and less, which were obtained by the experimental procedure mentioned above.

Stellaria media = assay: Post-emergence herbicidal action; details: application rate 5 g/ha, rated visually after about 3 weeks vs untreated controls
Protocol: as §1

Abutilon theophrasti = assay: Post-emergence herbicidal action; details: rated visually after about 3 weeks vs untreated controls
Protocol: as §1

Hordeum murinum = assay: Post-emergence herbicidal action
Protocol: as §1

Echinochloa crus-galli = assay: Post-emergence herbicidal action; details: rated visually after about 3 weeks vs untreated controls
Protocol: as §1

Pharbitis purpurea = assay: Post-emergence herbicidal action; details: rated visually after about 3 weeks vs untreated controls
Protocol: as §1

Digitaria sanguinalis = assay: Post-emergence herbicidal action; details: rated visually after about 3 weeks vs untreated controls
Protocol: as §1

Alopecurus myosuroides = assay: Post-emergence herbicidal action; details: rated visually after about 3 weeks vs untreated controls
Protocol: as §1

Amaranthus retroflexus = assay: Post-emergence herbicidal action; details: rated visually after about 3 weeks vs untreated controls
Protocol: as §1

Avena fatua = assay: Post-emergence herbicidal action; details: rated visually after about 3 weeks vs untreated controls
Protocol: as §1

Polygonum convolvulus = assay: Post-emergence herbicidal action
Protocol: as §1

Matricaria inodora = assay: Post-emergence herbicidal action; details: rated visually after about 3 weeks vs untreated controls
Protocol: as §1

Veronica persica = assay: Post-emergence herbicidal action
Protocol: as §1

Setaria viridis = assay: Post-emergence herbicidal action; details: rated visually after about 3 weeks vs untreated controls
Protocol: as §1

Lolium rigidum = assay: Post-emergence herbicidal action; details: rated visually after about 3 weeks vs untreated controls
Protocol: as §1

Oryza sativa = assay: Post-emergence crop plant compatibility; details: application rate 20 g/ha
Protocol: a. Post-Emergence Herbicidal Action and Crop Plant Compatibility
as §1, with “Seeds” for “a. Post-Emergence Herbicidal Action and Crop Plant Compatibility Seeds”, “plants.” for “plants. Tables A1 to A15 below show the effects of selected compounds of the general formula (I) according to Tables I.1 to I.36 on various harmful plants and at an application rate corresponding to 20 g/ha and less, which were obtained by the experimental procedure mentioned above.”
Tables A16 to A19 below show the crop plant compatibilities of selected compounds of the general formula (I) according to Tables I.1 to I.36 at an application rate corresponding to 5 g/ha or 20 g/ha, which were obtained in experiments according to the experimental procedure mentioned above. Here, the observed effects on selected crop plants are stated in comparison to the untreated controls (values in %).

| Structure (SMILES) | Viola tricolor (efficacy in %) (Viola tricolor; application rate 5 g/ha) | Stellaria media (efficacy in %) (Stellaria media) | Abutilon theophrasti (efficacy in %) (Abutilon theophrasti; application rate 5 g/ha) | Hordeum murinum (efficacy in %) (Hordeum murinum; application rate 20 g/ha) | Echinochloa crus-galli (efficacy in %) (Echinochloa crus-galli; application rate 5 g/ha) | Pharbitis purpurea (efficacy in %) (Pharbitis purpurea; application rate 5 g/ha) | Digitaria sanguinalis (efficacy in %) (Digitaria sanguinalis; application rate 5 g/ha) | Alopecurus myosuroides (efficacy in %) (Alopecurus myosuroides; application rate 5 g/ha) | Amaranthus retroflexus (efficacy in %) (Amaranthus retroflexus; application rate 5 g/ha) | Avena fatua (efficacy in %) (Avena fatua; application rate 20 g/ha) | Polygonum convolvulus (efficacy in %) (Polygonum convolvulus; application rate 5 g/ha) | Matricaria inodora (efficacy in %) (Matricaria inodora; application rate 5 g/ha) | Setaria viridis (efficacy in %) (Setaria viridis; application rate 5 g/ha) | Lolium rigidum (efficacy in %) (Lolium rigidum; application rate 20 g/ha) | Echinochloa crus-galli (efficacy in %) (Echinochloa crus-galli; application rate 20 g/ha) | Digitaria sanguinalis (efficacy in %) (Digitaria sanguinalis; application rate 20 g/ha) | Matricaria inodora (efficacy in %) (Matricaria inodora; application rate 20 g/ha) | Veronica persica (efficacy in %) (Veronica persica; application rate 5 g/ha) | Lolium rigidum (efficacy in %) (Lolium rigidum; application rate 5 g/ha) | Alopecurus myosuroides (efficacy in %) (Alopecurus myosuroides; application rate 20 g/ha) | further results |
| --- | --- | --- | --- | --- | --- | --- | --- | --- | --- | --- | --- | --- | --- | --- | --- | --- | --- | --- | --- | --- | --- |
| COCCOC(=O)CSc1ncccc1Sc1cc(-n2c(=O)cc(C(F)(F)F)n(C)c2=O)c(F)cc1Cl [I.10-1] | 100% | 100% | 80% | 90% | 100% | 80% | 80% | 80% | 80% | 80% | 100% | 90% | 80% | – | – | – | – | – | – | – | Veronica persica (efficacy in %) (Veronica persica; application rate 20 g/ha): 90% |
| COCCCOC(=O)CSc1ncccc1Sc1cc(-n2c(=O)cc(C(F)(F)F)n(C)c2=O)c(F)cc1Cl [I.10-26] | 100% | 100% | 100% | – | – | 100% | – | 80% | 100% | – | 100% | – | 100% | 80% | 100% | 100% | 100% | 80% | – | – | – |
| Cn1c(C(F)(F)F)cc(=O)n(-c2cc(Sc3cccnc3OCC(=O)OCC3CCCO3)c(Cl)cc2F)c1=O (stereo not shown) [I.1-71] | 100% | 100% | 100% | 80% | 100% | 100% | 100% | 80% | 100% | 80% | 100% | 100% | 100% | – | – | – | – | 100% | 100% | – | – |
| COCCOCCOC(=O)COc1ncccc1Oc1cc(-n2c(=O)cc(C(F)(F)F)n(C)c2=O)c(F)cc1Cl [I.15-23] | 100% | 100% | 100% | – | 100% | 100% | 100% | – | 100% | – | 100% | 90% | 100% | – | – | – | – | 100% | 80% | 100% | Hordeum murinum (efficacy in %) (Hordeum murinum; application rate 5 g/ha): 80%; Avena fatua (efficacy in %) (Avena fatua; application rate 5 g/ha): 80% |
| COCCCOC(=O)COc1ncccc1Oc1cc(-n2c(=O)cc(C(F)(F)F)n(C)c2=O)c(F)cc1Cl [I.15-26, 3-Methoxypropyl [(3-{2-chloro-4-fluoro-5-[3-methyl-2,6-dioxo-4-(trifluoromethyl)-3,6-dihydropyrimidin-1(2H)-yl]phenoxy}pyridin-2-yl)oxy]acetate] | 100% | 100% | 100% | 100% | 100% | 100% | 100% | – | 100% | 90% | 100% | – | 100% | – | – | – | – | 100% | 80% | 90% | – |
| COCCOC(=O)COc1ncccc1Oc1cc(-n2c(=O)cc(C(F)(F)F)n(C)c2=O)c(F)cc1Cl [I.15-1] | 100% | 100% | 100% | 100% | 100% | 100% | 100% | 80% | 100% | – | 100% | 100% | 100% | 100% | – | – | – | 100% | – | – | Avena fatua (efficacy in %) (Avena fatua; application rate 5 g/ha): 90% |
| COCCOC(=O)COc1ncccc1Sc1cc(-n2c(=O)cc(C(F)(F)F)n(C)c2=O)c(F)cc1Cl [I.1-1, 2-Methoxyethyl {[3-({2-chloro-4-fluoro-5-[3-methyl-2,6-dioxo-4-(trifluoromethyl)-3,6-dihydropyrimidin-1(2H)-yl]phenyl}sulfanyl)pyridin-2-yl]oxy}acetate] | 100% | 90% | – | – | – | 100% | – | – | – | 80% | 100% | 100% | 100% | 80% | 100% | 100% | – | 100% | – | 80% | Abutilon theophrasti (efficacy in %) (Abutilon theophrasti; application rate 20 g/ha): 100%; Hordeum murinum (efficacy in %) (Hordeum murinum; application rate 5 g/ha): 80%; Amaranthus retroflexus (efficacy in %) (Amaranthus retroflexus; application rate 20 g/ha): 100% |
| Cn1c(C(F)(F)F)cc(=O)n(-c2cc(Oc3cccnc3OCC(=O)OCC3CCCO3)c(Cl)cc2F)c1=O (stereo not shown) [I.15-71] | 100% | 100% | 100% | 100% | 100% | 100% | 100% | 90% | 100% | 80% | 100% | – | 100% | 100% | – | – | 100% | 100% | – | – | – |
| Cn1c(C(F)(F)F)cc(=O)n(-c2cc(Oc3cccnc3OCC(=O)OCC3CCOC3)c(Cl)cc2F)c1=O (stereo not shown) [I.15-72, Tetrahydrofuran-3-ylmethyl [(3-{2-chloro-4-fluoro-5-[3-methyl-2,6-dioxo-4-(trifluoromethyl)-3,6-dihydropyrimidin-1(2H)-yl]phenoxy}pyridin-2-yl)oxy]acetate] | 100% | 100% | 100% | – | 100% | 100% | 100% | 90% | 100% | – | 100% | 90% | 100% | 100% | – | – | – | 100% | – | – | Hordeum murinum (efficacy in %) (Hordeum murinum; application rate 5 g/ha): 90%; Avena fatua (efficacy in %) (Avena fatua; application rate 5 g/ha): 80% |
| CCOC(COC(=O)COc1ncccc1Oc1cc(-n2c(=O)cc(C(F)(F)F)n(C)c2=O)c(F)cc1[N+](=O)[O-])OCC [I.14-422] | – | – | – | – | – | – | – | – | – | 90% | – | – | – | 80% | 100% | 100% | 90% | – | – | 100% | Viola tricolor (efficacy in %) (Viola tricolor; application rate 20 g/ha): 100%; Abutilon theophrasti (efficacy in %) (Abutilon theophrasti; application rate 20 g/ha): 100%; Pharbitis purpurea (efficacy in %) (Pharbitis purpurea; application rate 20 g/ha): 100%; Amaranthus retroflexus (efficacy in %) (Amaranthus retroflexus; application rate 20 g/ha): 100%; Polygonum convolvulus (efficacy in %) (Polygonum convolvulus; application rate 20 g/ha): 100%; Veronica persica (efficacy in %) (Veronica persica; application rate 20 g/ha): 100%; Setaria viridis (efficacy in %) (Setaria viridis; application rate 20 g/ha): 100%; Oryza sativa (efficacy in %) (Oryza sativa): 20% |
